The values that follow come from US20040171603A1, “Novel therapeutic targets for the treatment of mycobacterial infections and compounds useful therefor” (priority 2001, published 2004).

Experiment [1] addresses T1, mycobacterial protein kinase G (PknG) (Mycobacterium tuberculosis, UniProt P9WI73).
T1 construct: GST; made in house; host or cells: E. coli BL21
Briefly: biochemical.

The test system of experiment [2] is M. smegmatis expressing wildtype PknG in murine macrophage cell line RAW. Format: cell-based, Mycobacterium smegmatis. The settings on record: FIG. 2.
Setting [3] is: read-out: IC50 value, inhibition of serine/threonine protein kinase G of M. tuberculosis.
Setting [4] is: ATP near Km, read-out: Inhibition of PknG (IC50, [μM]).
The mark [5] stands for this setting: ranging from about 2 μM and more than 30 μM over the listed compounds, read-out: IC50 values, inhibition of PknG (span stated for the group).

Like-named read-outs stand apart in the source and are kept apart here.

T1 sequence (P9WI73 whole entry): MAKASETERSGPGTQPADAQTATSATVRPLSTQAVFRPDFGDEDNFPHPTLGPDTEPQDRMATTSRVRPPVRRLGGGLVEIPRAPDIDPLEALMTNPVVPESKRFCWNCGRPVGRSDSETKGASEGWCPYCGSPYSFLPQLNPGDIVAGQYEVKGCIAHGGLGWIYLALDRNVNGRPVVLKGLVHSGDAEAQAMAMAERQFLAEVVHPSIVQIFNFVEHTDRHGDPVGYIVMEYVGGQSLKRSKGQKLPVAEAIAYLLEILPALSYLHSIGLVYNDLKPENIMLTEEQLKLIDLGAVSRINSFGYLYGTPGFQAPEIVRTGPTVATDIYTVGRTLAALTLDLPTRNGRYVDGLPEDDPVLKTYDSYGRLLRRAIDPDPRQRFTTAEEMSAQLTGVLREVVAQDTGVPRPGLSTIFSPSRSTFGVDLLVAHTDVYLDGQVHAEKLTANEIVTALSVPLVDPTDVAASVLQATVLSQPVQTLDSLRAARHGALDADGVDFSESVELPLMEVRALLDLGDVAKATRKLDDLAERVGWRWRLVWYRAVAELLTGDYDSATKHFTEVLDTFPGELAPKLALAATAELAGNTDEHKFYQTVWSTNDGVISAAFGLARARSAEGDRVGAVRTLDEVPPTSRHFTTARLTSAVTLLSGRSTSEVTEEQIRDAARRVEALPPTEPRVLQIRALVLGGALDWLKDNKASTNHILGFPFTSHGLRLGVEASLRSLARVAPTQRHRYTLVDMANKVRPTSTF

On to `NC(=O)c1c(NC(=O)C2CC2)sc2c1CCCC2` [Compound 237, 2-(Cyclopropanecarbonyl-amino)-4,5,6,7-tetrahydro-benzo[b]thiophene-3-carboxylic acid amide], for which the IC50 in experiment [1] (setting [3]) came to 0.2 µM. Further, in experiment [2] (1 μM or 10 μM), the “resistance to macrophage degradation of wildtype PknG-expressing M. smegmatis” value is on record as “overcomes the resistance to macrophage degradation”. In experiment [2] (10 μM, 24 hours postinfection, RAW cells), the “clearance of PknG-expressing M. smegmatis in macrophages” value is on record as “as efficient as observed with the mutant or vector control transformants”.

As to `NC(=O)c1c(NC(=O)Cc2ccc([N+](=O)[O-])cc2)sc2c1CCCC2` [Compound 238, 2-[2-(4-Nitrophenyl)-acetylamino]-4,5,6,7-tetrahydro-benzo[b]thiophene-3-carboxylic acid amide], the figures for the IC50 in experiment [1] (setting [4]) and in experiment [1] (setting [5]) were roughly 5 µM and no less than 2 µM, respectively.

On to `CC1CCc2c(sc(NC(=O)Cn3cnc([N+](=O)[O-])n3)c2C(N)=O)C1` (centres unmarked) [Compound 239, 6-Methyl-2-[2-(3-nitro-[1,2,4]triazol-1-yl)-acetylamino]-4,5,6,7-tetrahydro-benzo[b]thiophene-3-carboxylic acid amide], for which the IC50 in experiment [1] (setting [4]) was greater than 30 µM; in experiment [1] (setting [5]), no less than 2 µM.

Consider `O=C(Nc1sc2c(c1C(=O)NCCO)CCCC2)c1ccco1` [Compound 240, Furan-2-carboxylic acid [3-(2-hydroxy-ethylcarbamoyl)-4,5,6,7-tetrahydro-benzo[b]thiophen-2-yl]-amide], for which the IC50 in experiment [1] (setting [4]) is 16 µM; in experiment [1] (setting [5]), no less than 2 µM.

Consider `CC(=O)Nc1sc2c(c1C(N)=O)CCCC2` [Compound 250, 2-Acetylamino-4,5,6,7-tetrahydrobenzo[b]thiophene-3-carboxylic acid amide], for which the IC50 in experiment [1] (setting [4]) is greater than 30 µM; in experiment [1] (setting [5]), no less than 2 µM.

Turning to `O=C(O)c1c(NC(=O)C2CC2)sc2c1CCCC2` [Compound 252, 2-(Cyclopropanecarbonyl-amino)-4,5,6,7-tetrahydro-benzo[b]thiophene-3-carboxylic acid], the results for the IC50 in experiment [1] (setting [4]) and in experiment [1] (setting [5]) were roughly 19 µM and no less than 2 µM, respectively.

As to `CC(C)C(=O)Nc1sc2c(c1C(N)=O)CCCC2` [Compound 255, 2-Isobutyrylamino-4,5,6,7-tetrahydrobenzo[b]thiophene-3-carboxylic acid amide], the IC50 in experiment [1] (setting [4]) is roughly 3 µM; in experiment [1] (setting [5]), no less than 2 µM.

Regarding `CCOC(=O)c1c(NC(=O)C(C)C)sc2c1CCCC2` [Compound 256, 2-Isobutyrylamino-4,5,6,7-tetrahydrobenzo[b]thiophene-3-carboxylic acid ethyl ester], the IC50 is greater than 30 µM in experiment [1] (setting [4]) and no less than 2 µM in experiment [1] (setting [5]).

With `NC(=O)c1c(NC(=O)C2CCC2)sc2c1CCCC2` [Compound 266, 2-(Cyclobutanecarbonyl-amino)-4,5,6,7-tetrahydrobenzo[b]thiophene-3-carboxylic acid amide], the results for the IC50 in experiment [1] (setting [4]) and in experiment [1] (setting [5]) were roughly 3 µM and no less than 2 µM, respectively.

Take `CCC(C)C(=O)Nc1sc2c(c1C(N)=O)CCCC2` (centres unmarked) [Compound 267, 2-(2-Methyl-butyrylamino)-4,5,6,7-tetrahydrobenzo[b]thiophene-3-carboxylic acid amide]: the IC50 is roughly 15 µM in experiment [1] (setting [4]) and no less than 2 µM in experiment [1] (setting [5]).

In the case of `CC1CCc2c(sc(NC(=O)C3CC3)c2C(N)=O)C1` (centres unmarked) [Compound 270, 2-(Cyclopropanecarbonyl-amino)-6-methyl-4,5,6,7-tetrahydrobenzo[b]thiophene-3-carboxylic acid amide], the IC50 in experiment [1] (setting [3]) was 0.9 µM.

For the molecule `CC(=O)Nc1sc2c(c1C(N)=O)CCC(C)C2` (centres unmarked) [Compound 284, 2-Acetylamino-6-methyl-4,5,6,7-tetrahydrobenzo[b]thiophene-3-carboxylic acid amide], the IC50 in experiment [1] (setting [4]) is roughly 12 µM; in experiment [1] (setting [5]), no less than 2 µM.

For the molecule `NC(=O)c1c(NC(=O)C2CC2)sc2c1CCSC2` [Compound 286, 2-(Cyclopropanecarbonyl-amino)-4,7-dihydro-5H-thieno[2,3-c]-thiopyran-3-carboxylic acid amide], the figures for the IC50 in experiment [1] (setting [4]) and in experiment [1] (setting [5]) were roughly 2 µM and no less than 2 µM, respectively.
